Results taken from patent US11058696B2, “Substituted bicyclic compounds” (BRISTOL-MYERS SQUIBB COMPANY, priority 2014, dated 2021).

How the values were obtained:
[1] = target: S1P1 (membranes prepared from S1P1/CHO cells) (Homo sapiens (Human), UniProt P21453); assay: Receptor [35S] GTPγS Binding Assay (S1P1 GTPγS); assay type: biochemical; settings: GTPγS S1P1 versus GTPγS S1P3 binding assays
Experimental: Receptor [^35S] GTPγS Binding Assays: (S1P1 GTPγS/S1P3 GTPγS)
Compounds were loaded in a 384 Falcon v-bottom plate (0.5 μl/well in a 11 point, 3-fold dilution). Membranes prepared from S1P1/CHO cells or EDG3-Gal5-bla HEK293T cells (EDG3 equivalent S1P3) were added to the compound plate ([…], final protein 3 μg/well) with MULTIDROP®. [^35S]GTP (1250 Ci/mmol, Perkin Elmer) was diluted in assay buffer: 20 mM HEPES, pH7.5, 10 mM MgCl2, 150 mM NaCl, 1 mM EGTA (ethylene glycol tetraacetic acid), 1 mM DTT (Dithiothreitol), 10 μM GDP, 0.1% fatty acid free BSA, and 10 μg/ml Saponin to 0.4 nM. 40 μl of the [^35S] GTP solution was added to the compound plate with a final concentration of 0.2 nM. The reaction was kept at room temperature for 45 min. At the end of incubation, all the mixtures in the compound plate were transferred to Millipore 384-well FB filter plates via the VELOCITY11® Vprep liquid handler. The filter plate was washed with water 4 times by using the manifold Embla plate washer and dried at 60° C. for 45 min. MicroScint 20 scintillation fluid (30 μl) was added to each well for counting on the Packard TOPCOUNT®.
A larger value for the GTPγS S1P3 EC50 value indicated less activity in the GTPγS S1P3 binding assay.

[2] = tested on: spontaneous lupus, anti-dsDNA antibodies and kidney histology; assay: MRL/lpr Lupus Model; assay type: in vivo; settings: MRL/lpr mice, p.o. daily
Description: MRL/lpr Lupus Model: MRL/lpr is a spontaneous model of lupus. Male MRL/lpr mice (Jackson Laboratory) at the age of 12-14 weeks were enrolled for the study (N=12). […] Mice were bled every other week for anti-dsDNA antibodies measured by ELISA using pooled serum from diseased MRL/lpr mice as a positive comparator in each assay. The data were expressed in arbitrary units as a ratio of the titer of the test serum to the titer of the pooled MRL/lpr immune serum. At the end of study, one kidney was collected into 10% neutral buffered formalin and ZincTris fixatives. Fixed tissues were processed into paraffin blocks, sectioned at 3 μm, and stained with H&E or PASH. Kidney sections were graded using following criteria: Glomerular Damage: 1. Mesangial matrix thickening, cell proliferation, 2. Crescent formation, cellular deposits/casts in Bowman's space, 3. Cellular infiltration, mononuclear cells in glomerular tufts, 4. Fibrosis of Bowman's capsule. Tubular damage: 1. Infiltration of mononuclear cells, 2. Severity of tubular damage, 3. Protein casts. Tubulo-interstitial damage: 1. Fibrosis, 2. Infiltration of mononuclear cells. Each subcategory was assigned a score from 0-4, with the scores for glomerular indices representing the mean from 20 glomeruli per kidney. The total score for each mouse was the sum of the above 9 subcategories, with the highest possible score=36.

S1P1 (membranes prepared from S1P1/CHO cells), sequence (P21453 whole entry): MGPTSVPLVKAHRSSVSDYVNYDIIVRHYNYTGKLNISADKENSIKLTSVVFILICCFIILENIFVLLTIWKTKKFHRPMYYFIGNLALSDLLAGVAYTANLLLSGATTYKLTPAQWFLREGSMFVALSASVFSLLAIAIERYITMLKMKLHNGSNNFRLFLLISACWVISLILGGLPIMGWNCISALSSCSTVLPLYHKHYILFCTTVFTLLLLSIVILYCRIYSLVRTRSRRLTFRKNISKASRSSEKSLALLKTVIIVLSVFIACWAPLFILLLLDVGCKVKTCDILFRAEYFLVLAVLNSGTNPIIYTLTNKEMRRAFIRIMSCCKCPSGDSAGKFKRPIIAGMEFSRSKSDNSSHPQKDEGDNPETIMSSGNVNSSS

Compound	activity as an agonist of S1P1 and selectivity over S1P3 [1]	inhibition of disease progression as measured by anti-dsDNA titers and kidney histology [2]
COCCCCCC1CCc2cc([C@H]3CC[C@](N)(COP(=O)(O)O)C3)ccc2C1 (single isomer, unassigned) [Example 689]	possessed activity as an agonist of S1P1 and is selective over S1P3	–
COc1ccccc1CC[C@@H]1CCc2cc([C@H]3CC[C@](N)(CO)C3)ccc2C1 [Example 681, ((1R,3S)-1-amino-3-((S)-6-(2-methoxyphenethyl)-5,6,7,8-tetrahydronaphthalen-2-yl)cyclopentyl)methanol]	–	showed inhibition of disease progression
